Tested on: Z33 G4 (radiolabeled) (DNA, G4) AAAGTGATGGTGGTGGGGGAAGGATTTTCGAAC
Assay: EMSA, displacement of bound DHX36 protein
Details: 100 mM KCl, 10 mM NaCl, 3.3 mM MgCl2, 10 mM EDTA; K-Res buffer pH 7.8, 37 °C, no ATP; DHX36 (4 nM) displaced from 4 nM G4; poly(dI:dC) present

NCCOc1cc(C(=O)Nc2cc(OCCN)c3ccccc3n2)nc(C(=O)Nc2cc(OCCN)c3ccccc3n2)c1
IC50: 33 nM
